Values joined by “and” are separate entries in the source; they are usually repeats but may differ in a detail not shown here. Identical values can stand only once. Ends that are not written are not given here. Peptide text beside a SMILES is read from it. * marks the point of attachment. Decanoyl = CCCCCCCCCC(=O)*
What was measured:
[1] = test system: trypsin; experiment: Peptide degradation by trypsin with or without protease inhibitor (LC/MS); format: in vitro ADME; details: for Survival: Trypsin 25 μg/mL, peptide 1 mg/mL
Procedure: (§1) Peptides of synthetic origin and LL-37 were used in the protease processing experiments at a concentration of 1-2 mg/mL in 0.5M MOPS pH 8.5/0.5M NaCl final buffer concentration. Proteases were used at a concentration of 0.020-0.050 mg/mL.
(§2) Experiments were run in pairs, one with protease inhibitor and one without a protease inhibitor. Liquid chromatography/mass spectrometry (LC/MS) spectra were collected at approximately 1-minute, 1-hour, 4-hour and 24-hour time points from the time of adding protease to the peptide (time zero). LC/MS spectra were collected using a standard reverse phase gradient starting at 5% acetonitrile and ramping up to 65% acetonitrile in 25 minutes.
(§3) The proteases employed in the study were initially dissolved in a 1M NaCl solution, while the peptides were dissolved in 1M MOPS buffer at pH 8.5. The solutions were equilibrated to 37° C. and then mixed at a ratio of 1:1 to start each experiment. Lower buffer concentrations were also used (0.1M MOPS pH 8.5 and 0.2M NaCl). Protease inhibitors were tested at several different concentrations (low and high from 0.02 mg/mL to 40 mg/mL) against a given protease.
(§4) The mass spectrometer used in these studies has a limit of detection below which the specific molecular weight of a molecule cannot be identified from the TIC trace. In these below-detection situations, it was assumed that the tested peptide was completely degraded.
(§5) A series of experiments were performed employing the above-described methodology to determine the utility of the invention as it regards a wider range of proteases, peptides and protease inhibitors. If, at any specific time-point, there was no detectable parent peptide (i.e., the absence of non-degraded peptide), then that time-point was documented as the time required for peptide degradation.

[2] = test system: IL-6 expression; experiment: UVB-induced IL-6 expression in human skin epithelial cells (ELISA); format: cell-based; details: for reduction of IL-6 levels: skin epithelial cells treated with UVB; for repression of UVB-induced IL-6 expression: skin epithelial cells, peptide 40 μg/mL, 24 hours post UVB
Procedure: (§6) Human skin epithelial cells (ATCC CRL-2592), keratinocytes (ATCC CRL-2404) and skin fibroblasts (ATCC CRL-7481) were employed in the study. Cells were seeded into 6-well plates and allowed to grow to >95% confluence in Dulbecco's modified Eagle's medium (DMEM; 4 mM L-glutamine, 4.5 g/L glucose) adjusted to contain 1.5 g/L sodium bicarbonate and supplemented with 10% fetal bovine serum (FBS). For keratinocytes, cells were grown in keratinocyte growth media (without serum) supplemented with 5 ng/mL human recombinant epithelial growth factor (EGF; Invitrogen, Grand Island, N.Y.). After the cell monolayer reached >95% confluence, the cells were serum-starved or EGF-starved for 24 hours in complete medium without serum. UVA or UVB was generated using a UVLMS lamp (4-W model, 3UV assembly; Upland, Calif.) with the irradiation wavelength set at 365 or 302 nm, respectively. The UV lamp was placed 15 cm above the tissue culture plate. Before UV treatment, the tissue culture media was replaced with PBS, after which the cells were placed under the UVB lamp (450 μW/cm^2, measured using a radiometer) for 35 seconds (epithelial cells and fibroblasts) or 25 seconds (keratinocytes). UVA treatment was conducted (500 μW/cm^2) for 30 seconds with fibroblasts. After UV treatment, PBS was immediately replaced with complete medium (without serum or EGF) containing either no peptide or peptide at a specified concentration, and the plates were incubated at 37° C., 5% CO2 for 15-24 hours. The cell media was then collected and spun down at 15000 rpm for 2 minutes to remove cell debris. IL-6 and MMP-1 levels in the media were measured, respectively, using human IL-6 (DIACLONE, Stamford, Conn.) and MMP-1 (Calbiochem, San Diego, Calif.) ELISA kits according to manufacturers' instructions. These measurements served as indicators of cell inflammatory activity in response to UV exposure.
All the tetrapeptides listed in Table I were subjected to a screening test at 40 μg/mL for potential down-regulation of this response (data not shown).
P1422 (SEQ ID NO:1) reduced IL-6 levels by 19% and 25% at 10 and 20 μg/mL, respectively; and P1423 (SEQ ID NO:2) reduced IL-6 levels by 10% and 20% at 10 and 20 μg/mL, respectively.

[3] = test system: IL-6 expression; experiment: UVB-induced IL-6 expression in human keratinocytes (ELISA); format: cell-based; details: UVB-treated human keratinocytes; peptide 10 μg/mL
Procedure: as §6, with “UVA treatment was conducted (500 μW/cm^2) for 30 seconds with fibroblasts. After UV treatment, PBS was immediately replaced with complete medium (without serum or EGF) containing either no peptide or peptide at a specified concentration, and the plates were incubated at 37° C., 5% CO2 for 15-24 hours. The cell media was then collected and spun down at 15000 rpm for 2 minutes to remove cell debris.” left out, “These measurements served as indicators of cell inflammatory activity in response to UV exposure.” left out

[4] = test system: IL-6 expression; experiment: UVB-induced IL-6 expression in human skin fibroblasts (ELISA); format: cell-based; details: human fibroblasts after UVB
Procedure: as §6
Such peptide-mediated IL-6 down-regulation was also evident in human fibroblasts after exposure to UVB.

[5] = test system: MMP-1 expression; experiment: UVA-induced MMP-1 expression in human skin fibroblasts (ELISA); format: cell-based; details: UVA 500 μW/cm^2, peptide 10 μg/mL
Procedure: as §6, with “UVA treatment was conducted (500 μW/cm^2) for 30 seconds with fibroblasts. After UV treatment, PBS was immediately replaced with complete medium (without serum or EGF) containing either no peptide or peptide at a specified concentration, and the plates were incubated at 37° C., 5% CO2 for 15-24 hours. The cell media was then collected and spun down at 15000 rpm for 2 minutes to remove cell debris.” left out, “These measurements served as indicators of cell inflammatory activity in response to UV exposure.” left out

[6] = test system: MMP-1 expression; experiment: MMP-1 induction in fibroblasts incubated in media conditioned by UVB-treated keratinocytes (ELISA); format: cell-based, human; details: peptide 10 μg/mL
Procedure: as §6, with “UVA treatment was conducted (500 μW/cm^2) for 30 seconds with fibroblasts. After UV treatment, PBS was immediately replaced with complete medium (without serum or EGF) containing either no peptide or peptide at a specified concentration, and the plates were incubated at 37° C., 5% CO2 for 15-24 hours. The cell media was then collected and spun down at 15000 rpm for 2 minutes to remove cell debris.” left out, “These measurements served as indicators of cell inflammatory activity in response to UV exposure.” left out

[7] = test system: elastase; experiment: Peptide degradation by elastase with or without protease inhibitor (LC/MS); format: in vitro ADME; details: Elastase 25 μg/mL, peptide 1 mg/mL
Procedure: as §1, §2, §3, §4, §5

[8] = molecular target: T1, plasmin (Homo sapiens, UniProt P00747); experiment: Peptide degradation by plasmin with or without protease inhibitor (LC/MS); format: in vitro ADME; details: for Survival: peptide 1 mg/mL
T1 construct: purchased Sigma-Aldrich
T1 sequence (P00747 581-810 limits assumed, species assumed): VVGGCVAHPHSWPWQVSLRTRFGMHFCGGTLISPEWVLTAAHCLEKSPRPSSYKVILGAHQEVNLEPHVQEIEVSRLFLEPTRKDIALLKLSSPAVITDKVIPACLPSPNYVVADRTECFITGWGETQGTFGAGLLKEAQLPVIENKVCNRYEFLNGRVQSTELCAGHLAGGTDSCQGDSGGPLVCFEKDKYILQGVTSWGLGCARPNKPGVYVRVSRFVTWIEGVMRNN
T1 sequence (P00747 97-580 limits assumed, species assumed): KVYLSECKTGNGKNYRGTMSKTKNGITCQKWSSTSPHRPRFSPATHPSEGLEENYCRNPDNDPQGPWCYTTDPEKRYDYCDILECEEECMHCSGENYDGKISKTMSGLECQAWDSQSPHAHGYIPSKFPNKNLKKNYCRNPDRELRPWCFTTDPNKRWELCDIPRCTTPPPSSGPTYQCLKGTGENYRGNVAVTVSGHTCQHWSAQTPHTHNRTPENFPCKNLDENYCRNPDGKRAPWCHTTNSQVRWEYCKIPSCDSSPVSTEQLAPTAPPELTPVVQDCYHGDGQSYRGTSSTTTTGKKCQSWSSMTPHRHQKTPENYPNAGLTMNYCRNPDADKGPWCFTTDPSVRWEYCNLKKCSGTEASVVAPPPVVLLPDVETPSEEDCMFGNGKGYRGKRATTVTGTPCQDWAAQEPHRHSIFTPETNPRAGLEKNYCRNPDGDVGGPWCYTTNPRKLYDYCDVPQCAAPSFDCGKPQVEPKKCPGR
Procedure: as §1, §2, §3, §4, §5

[9] = test system: kallikrein; experiment: Peptide degradation by kallikrein with or without protease inhibitor (LC/MS); format: in vitro ADME; details: Kallikrein 25 μg/mL, peptide 1 mg/mL
Procedure: as §1, §2, §3
The mass spectrometer used in these studies has a limit of detection below which the specific molecular weight of a molecule cannot be identified from the TIC trace. In these below-detection situations, it was assumed that the tested peptide was completely degraded. […]

[10] = molecular target: T2, chymotrypsin (Bos taurus, UniProt P00766); experiment: Peptide degradation by chymotrypsin with or without protease inhibitor (LC/MS); format: in vitro ADME; details: peptide 1 mg/mL
T2 construct: purchased Sigma-Aldrich
Procedure: as §1, §2, §3, §4, §5

FALLKL-NH2 [HB168]
Survival ([1]; aprotinin 0.02 mg/mL): >24 h
Survival ([1]; no protease inhibitor): <1 h

PQEK-NH2 [P1422, tetrapeptide amidated at the carboxy terminus]
reduction of IL-6 levels ([2]; peptide 10 μg/mL): 19%
reduction of IL-6 levels ([2]; peptide 20 μg/mL): 25%
repression of UVB-induced IL-6 expression [2]: reproducible repression
down-regulation of IL-6 expression [3]: down-regulate IL-6 expression
reduction of IL-6 levels compared to control ([4]; peptide 10 μg/mL): 30%
reduction of IL-6 ([4]; peptide concentrations lower than 10 μg/mL): no significant reduction
down-regulation of UVA-induced MMP-1 expression [5]: able to down-regulate
MMP-1 induction [6]: far less MMP-1 induction

PQEI-NH2 [P1423, tetrapeptide amidated at the carboxy terminus]
reduction of IL-6 levels ([2]; peptide 10 μg/mL): 10%
reduction of IL-6 levels ([2]; peptide 20 μg/mL): 20%
repression of UVB-induced IL-6 expression [2]: reproducible repression
down-regulation of IL-6 expression [3]: down-regulate IL-6 expression
reduction of IL-6 levels compared to control ([4]; peptide 2 μg/mL): 24%
reduction of IL-6 levels compared to control ([4]; peptide 5 μg/mL): 30%
reduction of IL-6 levels compared to control ([4]; peptide 10 μg/mL): 48%
down-regulation of UVA-induced MMP-1 expression [5]: able to down-regulate
MMP-1 induction [6]: far less MMP-1 induction

FAKALKALLKALKAL-NH2 [HB64, FAKALKALLKALKAL-NH2]
parent peak in TIC traces [1]: reduced over time
Survival ([7]; aprotinin 0.02 mg/mL): <1 h
Survival ([7]; no protease inhibitor): <1 h
Survival ([7]; tranexamic acid 0.80 mg/mL): <1 h
Survival ([8]; Plasmin 20 μg/mL, no protease inhibitor): <4 h
Survival ([8]; Plasmin 22 μg/mL, tranexamic acid 40 mg/mL): <24 h
Survival ([8]; Plasmin 25 μg/mL, no protease inhibitor): <4 h and <6 h
Survival ([8]; Plasmin 46 μg/mL, no protease inhibitor): <4 h
Survival ([8]; Plasmin 50 μg/mL, tranexamic acid 10 mg/mL): <6 h
amount of parental peptide by XIC trace compared to plasmin alone ([8]; plasmin plus tranexamic acid vs plasmin alone): five-times greater
protection of peptide (TIC and XIC traces) ([8]; plasmin plus tranexamic acid, 4-hour exposure): protected from plasmin-mediated proteolysis
degradation of peptide (TIC and XIC traces) ([8]; plasmin, no inhibitor, 4-hour exposure): most of the HB64 peptide was degraded
Survival ([9]; no protease inhibitor): <24 h
Survival ([9]; tranexamic acid 0.80 mg/mL): <24 h
Survival ([10]; Chymotrypsin 25 μg/mL, aprotinin 0.02 mg/mL): <24 h
Survival ([10]; Chymotrypsin 25 μg/mL, no protease inhibitor): <1 h

CCCCCCCCCC(=O)N[C@@H](CCCCN)C(=O)N[C@@H](Cc1ccccc1)C(=O)N[C@@H](CCCCN)C(=O)N[C@@H](Cc1c[nH]c2ccccc12)C(=O)N1CCC[C@H]1C(=O)N[C@@H](Cc1c[nH]c2ccccc12)C(N)=O [HB1345, decanoyl-KFKWPW-NH2] (Decanoyl-KFKWPW-NH2)
Survival ([1]; aprotinin 0.02 mg/mL): >24 h
Survival ([1]; no protease inhibitor): <1 h

CC[C@H](C)[C@H](NC(=O)[C@H](CCCCN)NC(=O)[C@H](CCC(=O)O)NC(=O)[C@H](CCCCN)NC(=O)[C@H](CO)NC(=O)[C@H](CCCCN)NC(=O)[C@H](CCCNC(=N)N)NC(=O)[C@H](Cc1ccccc1)NC(=O)[C@H](Cc1ccccc1)NC(=O)[C@H](CC(=O)O)NC(=O)CNC(=O)[C@H](CC(C)C)NC(=O)[C@@H](N)CC(C)C)C(=O)NCC(=O)N[C@@H](CCCCN)C(=O)N[C@@H](CCC(=O)O)C(=O)N[C@@H](Cc1ccccc1)C(=O)N[C@@H](CCCCN)C(=O)N[C@@H](CCCNC(=N)N)C(=O)N[C@H](C(=O)N[C@H](C(=O)N[C@@H](CCC(N)=O)C(=O)N[C@@H](CCCNC(=N)N)C(=O)N[C@H](C(=O)N[C@@H](CCCCN)C(=O)N[C@@H](CC(=O)O)C(=O)N[C@@H](Cc1ccccc1)C(=O)N[C@@H](CC(C)C)C(=O)N[C@@H](CCCNC(=N)N)C(=O)N[C@@H](CC(N)=O)C(=O)N[C@@H](CC(C)C)C(=O)N[C@H](C(=O)N1CCC[C@H]1C(=O)N[C@@H](CCCNC(=N)N)C(=O)N[C@H](C(=O)N[C@@H](CCC(=O)O)C(=O)N[C@@H](CO)C(=O)O)[C@@H](C)O)C(C)C)[C@@H](C)CC)C(C)C)[C@@H](C)CC [LL-37]
parent peptide detection [8]: undetectable
Survival ([8]; Plasmin 22 μg/mL, no protease inhibitor): <1 h
Survival ([8]; Plasmin 22 μg/mL, no protease inhibitor, Expt. 38): <0.75 h
Survival ([8]; Plasmin 22 μg/mL, tranexamic acid 9 mg/mL): <4 h
Survival ([10]; Chymotrypsin 22 μg/mL, no protease inhibitor): <1 h
Survival ([10]; Chymotrypsin 22 μg/mL, tranexamic acid 9 mg/mL): <1 h
